Experiment: Plasma concentration after single IV or PO dose in mice (LC/MS/MS)
Assay type: in vivo
Design: Plasma concentration PO @ t = 30 min: dose or concentration left out as unconfirmed
Conditions: 30 min after dosing
Protocol: Compounds were formulated at 0.4 and 1 mg/ml in a vehicle containing Poly-Ethylene Glycol 400 (PEG400; Cat. No. #91893, Sigma Aldrich) as dosing solutions for intravenous and oral administration, respectively. Male C57BL6 mice, approximately 8-10 weeks old (22-25 grams), were obtained from the vivarium Fundación Ciencia & Vida Chile (Santiago, Chile) and maintained in a temperature-controlled room with 12/12 hr light/dark schedule with food and water ad libitum. Animals were acclimated for a minimum period of 4 days upon arrival at the testing facility.
At the day of study, mice were weighed, identified by marking the tail with numbers using a non-toxic permanent marker and designated into the experimental groups (n=3 per group). Each mouse of IV dosing groups received the systemic administration of 2 mg/kg dosing solution via caudal vein. […] No.: FTP-2038; Instech Salomon Inc.).
Blood samples were harvested by terminal cardiac puncture at 30 min after dosing. Non-dosed mice were used to collect samples of zero time points. Whole blood was collected into microtainer tubes with (K2) EDTA (Cat. No.: 365974, Becton Dickinson & Co.). Blood samples were centrifuged immediately at 9,000 g at 4° C. for 5 min and then plasmas were separated. Plasma samples were placed into individually labeled cryovials and stored in a −80° C. freezer until LC/MS/MS bioanalysis.
The bioanalysis of plasma samples to determine concentrations of exemplary compounds of the invention was conducted with a QTRAP 4500 triple quadrupole mass spectrometer (Applied Biosystems SCIEX) in the positive ion mode and interfaced with an ekspert ultraLC 100-XL UPLC System (eksigent). Calibration standards (0.01 to 100 μM) and QCs (0.2, 2.0 and 20 μM) were prepared from naïve mouse plasma in parallel with mouse plasma study samples (60 μl) by precipitation with three volumes of ice cold internal standard solution (acetonitrile containing 20 μM of theophylline). The precipitated samples were centrifuged at 6,100 g for 30 min at 4° C. Following centrifugation, an aliquot of each supernatant was transferred into a clean sample vial and diluted with two volumes of aqueous mobile phase (0.2% formic acid in water). Samples were injected onto a reverse phase analytical column (YMC Triart C18; 2.0×50 mm; 1.9 μm; YMC CO) and eluted with a gradient of 0.1 or 0.2% formic acid in Acetonitrile. Test compound and internal standard were monitored by a multiple reaction monitoring (MRM) experiment using an Analyst software (v 1.6.2, Applied Biosystems SCIEX). Quantitation was conducted using a MultiQuant software (v 2.1, Applied Biosystems SCIEX) and the resulting calibration curve was fitted with a linear or quadratic regression and 1/× weighting. The lower limit of quantitation were between 0.01-0.03 μM.
IV and PO PK parameters were calculated from the concentration-time data using Phoenix WinNonlin software (v 6.4, Certara, Princeton, N.J.) by noncompartmental analysis in the sparse sampling mode.

Row | Plasma concentration PO @ t = 30 min | SMILES | Plasma concentration 2 mg/Kg IV @ t = 30 min
1 | + (plasma concentration < 500 nM) | CC(c1ccccc1)N1CCC(C(N)(CCCCB(O)O)C(=O)O)CC1 (single isomer, unassigned) [Compound 10, 2-amino-6-borono-2-(1-(1-phenylethyl)piperidin-4-yl)hexanoic acid] | + (plasma concentration < 500 nM)
2 | + (plasma concentration < 500 nM) | NC(CCCCB(O)O)(C(=O)O)C1CCN(C2CCCc3ccccc32)CC1 (single isomer, unassigned) [Compound 5, 2-amino-6-borono-2-(1-(1,2,3,4-tetrahydronaphthalen-1-yl)piperidin-4-yl)hexanoic acid] | ++ (plasma concentration > 1000 nM for test compound)
3 | + (plasma concentration < 500 nM) | NC(CCCCB(O)O)(C(=O)O)C1CCN(C2CCCc3ccc(F)cc32)CC1 (single isomer, unassigned) [Compound 83, 2-amino-6-borono-2-(1-(7-fluoro-1,2,3,4-tetrahydronaphthalen-1-yl)piperidin-4-yl)hexanoic acid] | –
4 | + (plasma concentration < 500 nM) | NC(CCCCB(O)O)(C(=O)O)C1CCN(C2CCc3ccccc32)CC1 (single isomer, unassigned) [Compound 2, 2-amino-6-borono-2-(1-(2,3-dihydro-1H-inden-1-yl)piperidin-4-yl)hexanoic acid] | –

From patent publication US20220017541A1, “INHIBITORS OF ARGINASE” (Black Belt Tx Ltd, priority 2018, published 2022)
